From US8871934B2, “Fluorene compound and pharmaceutical use thereof” (Japan Tobacco Inc., priority 2008, dated 2014)
Read-outs that look alike come from different tables or passages of the source.

Target: human PDHK2 (hPDHK2) (Homo sapiens (Human), UniProt Q15119)
Experiment: Inhibitory action of PDHK activity in vitro (kinase reaction, residual PDH activity measured)
Type: biochemical
Procedure: In the case of human PDHK2 (hPDHK2, Genbank Accession No. NM_002611), modified hPDHK2 cDNA wherein FLAG-Tag sequence is added to the N terminal by a polymerase linkage reaction was prepared based on hPDHK2 cDNA clone (pReceiver-M01/PDK2-GeneCopoeia), and cloned into a vector (pET17b-Novagen). The recombinant construct was transformed into Escherichia coli (DH5α-TOYOBO). The recombinant clones were identified, plasmid DNA was isolated and subjected to the DNA sequence analysis. One clone which had the expected nucleic acid sequence was selected for expression work.
During the assay, the hPDHK2 enzyme concentration was set to the minimal concentration at which PDH is inhibited the most.
0.05 U/mL PDH (porcine heart PDH complex, Sigma P7032) and 1.6 μg/mL hPDHK2 were mixed in a buffer (50 mmol/L 3-morpholinopropanesulfonic acid (pH 7.0), 20 mmol/L dipotassium hydrogen phosphate, 60 mmol/L potassium chloride, 2 mmol/L magnesium chloride, 0.4 mmol/L EDTA, and 0.2% Pluronic F-68, 2 mmol/L dithiothreitol), the mixture was incubated at 4° C. overnight to give PDH/hPDHK2 complex. The test compound was diluted with dimethyl sulfoxide (DMSO). PDH/hPDHK2 complex (20 μL), test compound (1.5 μL) and 3.53 μmol/L ATP (diluted with buffer, 8.5 μL) were added to a half area 96 well UV-transparent microplate (Corning 3679), and PDHK reaction was performed at room temperature for 45 min. Instead of the test compound, DMSO (1.5 μL) was added to a control well. DMSO (1.5 μL) was added instead of the test compound to a blank well for the measurement of the maximum rate of PDH reaction, and hPDHK2 was not added. Than, 10 μL of substrates (5 mmol/L sodium pyruvate, 5 mmol/L Coenzyme A, 12 mmol/L NAD, and 5 mmol/L thiamine pyrophosphate, diluted with buffer) was added. The mixture was incubated at room temperature for 90 min, and the residual PDH activity was measured. The absorbance at 340 nm before and after PDH reaction was measured on a microplate reader to detect NADH produced by the PDH reaction. The PDHK inhibitory rate (%) of the test compound was calculated from the formula [{(PDH activity of test compound—PDH activity of control)/PDH activity of blank—PDH activity of control)}×100]. The IC50 value was calculated from the concentrations of the test compound at two points enclosing 50% inhibition of the PDHK activity.

[1] = PDHK inhibitory activity, class symbol of IC50
[2] = read-out: PDHK inhibitory activity IC50

SMILES: OC1(C(F)(F)F)c2ccccc2-c2c(Cl)cc(Cl)cc21 (centres unmarked) [compound 21]
- IC50 [1]: 0.1 to 1 µM
- IC50 [2]: 0.302 µM

SMILES: CC(=O)Nc1ccc2c(c1)C(O)(C(F)(F)F)c1ccccc1-2 (centres unmarked) [compound 22]
- IC50 [1]: > 1 µM
- IC50 [2]: 16.7 µM

SMILES: COC(=O)c1ccc2c(c1)C(O)(C(F)(F)F)c1ccccc1-2 (centres unmarked) [compound 23]
- IC50 [1]: 0.1 to 1 µM
- IC50 [2]: 0.571 µM

SMILES: O=C(O)c1ccc2c(c1)C(O)(C(F)(F)F)c1ccccc1-2 (centres unmarked) [compound 24]
- IC50 [1]: > 1 µM
- IC50 [2]: > 100 µM

SMILES: CCc1cccc2c1-c1ccccc1C2(O)C(F)(F)F (centres unmarked) [compound 25]
- IC50 [1]: > 1 µM
- IC50 [2]: 30.9 µM

SMILES: Nc1ccc2c(c1)-c1ccccc1C2(O)C(F)(F)F (centres unmarked) [compound 26]
- IC50 [1]: > 1 µM
- IC50 [2]: 17.6 µM

SMILES: COC(=O)c1cccc2c1-c1ccccc1C2(O)C(F)(F)F (centres unmarked) [compound 27]
- IC50 [1]: 0.1 to 1 µM
- IC50 [2]: 0.848 µM

SMILES: CC(=O)Nc1ccc2c(c1)-c1ccccc1C2(O)C(F)(F)F (centres unmarked) [compound 28]
- IC50 [1]: > 1 µM
- IC50 [2]: 2.81 µM

SMILES: NC(=O)c1ccc2c(c1)C(O)(C(F)(F)F)c1ccccc1-2 (centres unmarked) [compound 29]
- IC50 [1]: > 1 µM
- IC50 [2]: 5.74 µM

SMILES: CNC(=O)c1ccc2c(c1)C(O)(C(F)(F)F)c1ccccc1-2 (centres unmarked) [compound 30]
- IC50 [1]: > 1 µM
- IC50 [2]: 8.61 µM

SMILES: CN(C)C(=O)c1ccc2c(c1)C(O)(C(F)(F)F)c1ccccc1-2 (centres unmarked) [compound 31]
- IC50 [1]: > 1 µM
- IC50 [2]: 1.35 µM

SMILES: O=C(O)c1cccc2c1-c1ccccc1C2(O)C(F)(F)F (centres unmarked) [compound 32]
- IC50 [1]: > 1 µM
- IC50 [2]: > 100 µM

SMILES: NC(=O)c1cccc2c1-c1ccccc1C2(O)C(F)(F)F (centres unmarked) [compound 33]
- IC50 [1]: > 1 µM
- IC50 [2]: 1.81 µM

SMILES: CNC(=O)c1cccc2c1-c1ccccc1C2(O)C(F)(F)F (centres unmarked) [compound 34]
- IC50 [1]: > 1 µM
- IC50 [2]: 33.2 µM

SMILES: CN(C)C(=O)c1cccc2c1-c1ccccc1C2(O)C(F)(F)F (centres unmarked) [compound 35]
- IC50 [1]: > 1 µM
- IC50 [2]: > 100 µM

SMILES: OC1(C(F)(F)F)c2ccccc2-c2ncc(Cl)cc21 (centres unmarked) [compound 36]
- IC50 [1]: 0.1 to 1 µM
- IC50 [2]: 0.626 µM

SMILES: COc1ccc2c(c1)C(O)(C(F)(F)F)c1ccccc1-2 (centres unmarked) [compound 37]
- IC50 [1]: > 1 µM
- IC50 [2]: 3.96 µM

SMILES: Oc1ccc2c(c1)C(O)(C(F)(F)F)c1ccccc1-2 (centres unmarked) [compound 38]
- IC50 [1]: > 1 µM
- IC50 [2]: 12 µM

SMILES: CCc1ccc2c(c1)C(O)(C(F)(F)F)c1ccccc1-2 (centres unmarked) [compound 39]
- IC50 [1]: > 1 µM
- IC50 [2]: 4.52 µM

SMILES: COC(=O)c1ccc2c(c1)-c1ccccc1C2(O)C(F)(F)F (centres unmarked) [compound 40]
- IC50 [1]: > 1 µM
- IC50 [2]: 2.47 µM

SMILES: O=C(O)c1ccc2c(c1)-c1ccccc1C2(O)C(F)(F)F (centres unmarked) [compound 41]
- IC50 [1]: > 1 µM
- IC50 [2]: 68.6 µM

SMILES: NC(=O)c1ccc2c(c1)-c1ccccc1C2(O)C(F)(F)F (centres unmarked) [compound 42]
- IC50 [1]: > 1 µM
- IC50 [2]: 5.56 µM

SMILES: CNC(=O)c1ccc2c(c1)-c1ccccc1C2(O)C(F)(F)F (centres unmarked) [compound 43]
- IC50 [1]: > 1 µM
- IC50 [2]: 3.92 µM

SMILES: CN(C)C(=O)c1ccc2c(c1)-c1ccccc1C2(O)C(F)(F)F (centres unmarked) [compound 44]
- IC50 [1]: > 1 µM
- IC50 [2]: > 100 µM

SMILES: COC(=O)c1cc(C)c2c(c1)C(O)(C(F)(F)F)c1ccccc1-2 (centres unmarked) [compound 45]
- IC50 [1]: 0.1 to 1 µM
- IC50 [2]: 0.247 µM

SMILES: COc1cccc2c1-c1ccccc1C2(O)C(F)(F)F (centres unmarked) [compound 46]
- IC50 [1]: > 1 µM
- IC50 [2]: 6.49 µM

SMILES: COc1ccc2c(c1)-c1ccccc1C2(O)C(F)(F)F (centres unmarked) [compound 47]
- IC50 [1]: > 1 µM
- IC50 [2]: 4.91 µM

SMILES: CCOC(=O)c1cccc2c1-c1ccccc1C2(O)C(F)(F)F (centres unmarked) [compound 48]
- IC50 [1]: 0.1 to 1 µM
- IC50 [2]: 0.639 µM

SMILES: N#Cc1cccc2c1-c1ccccc1C2(O)C(F)(F)F (centres unmarked) [compound 49]
- IC50 [1]: > 1 µM
- IC50 [2]: 1.79 µM

SMILES: COC(=O)c1cc(C(=O)OC)c2c(c1)C(O)(C(F)(F)F)c1ccccc1-2 (centres unmarked) [compound 50]
- IC50 [1]: 0.1 to 1 µM
- IC50 [2]: 0.1 µM

SMILES: CCN(C)C(=O)c1ccc2c(c1)C(O)(C(F)(F)F)c1ccccc1-2 (centres unmarked) [compound 51]
- IC50 [1]: > 1 µM
- IC50 [2]: 2.59 µM
